Entries after “also recorded” stand apart in the source; their conditions may differ.
Columns and labels:
Assay type in all cases: cell-based, human
[1] = system: SCC-1 cells; assay: Growth of SCC-1 cells transfected with p16 siRNA or negative control siRNA; settings: 10^-6 M OGF; for reduction in growth: negative control siRNA-transfected SCC-1 cells
Description: The p16-targeted siRNAs (antisense:5′ […]-3′; sense (SEQ ID NO:5): 5′ […]-3′(SEQ ID NO:6) were obtained as ready-annealed, purified duplex probes (Invitrogen, Carlsbad, Calif.). For transfection, 2×10^5 cells per well were seeded in 6-well plates containing 1 ml of serum-free media without antibiotics. In each well, 20 nM of p16-siRNA or control siRNA solutions in serum-free media were added. Cells were incubated for 4 h at 37° C. prior to the addition of OGF. Cultures were incubated for additional 20 h, and then 1 ml fresh complete media either lacking or containing OGF was added. At the indicated time points, cells were collected for growth curves or Western blotting. Three or more independent experiments were conducted. The control siRNAs were purchased from Ambion.

[2] = system: Rb protein; assay: Western blot of Rb and phospho-Rb in synchronized BxPC-3 cells
Description: Synchronized cells (2×10^6) from each treatment were solubilized in 200 μl RIPA buffer (1×PBS, 10 μM IGEPAL, 1 mg/ml SDS, 5 mg/ml deoxycholic acid), containing protease and phosphatase inhibitors (2 μg/ml aprotinin, 3 mg/ml phenylmethyl sulfonyl fluoride, 1 mM sodium orthovanidate, 1 μM okadaic acid). Total protein concentrations were measured using the DC protein assay kit (Bio-Rad Laboratories, Hercules, Calif.). Equal amounts of protein (40 μg) were subjected to 10% SDS-PAGE followed by transfer of proteins onto polyvinylidene difluoride (Millipore, Billerica, Mass.) using standard protocols.
The following antibodies were purchased from commercial sources: phospho-Rb (Ser795), phospho-Rb (Ser807/811) (Cell Signaling Technology, Beverly, Mass.); Cdk2, p57 (Santa Cruz Biotechnology, Santa Cruz, Calif.); p21, p27, total Rb (BD PharMingen, San Diego, Calif.); β-actin (Clone AC-15, Sigma-Aldrich).
Membranes were probed with secondary anti-rabbit or anti-mouse horseradish peroxidase-conjugated antibodies (GE Healthcare-Amersham Biosciences, Piscataway, N.J.), and developed using a chemiluminescence Western blotting detection system.
To determine equal loading of total protein samples, blots were re-probed with monoclonal antibody against β-actin at a dilution of 1:2000. If necessary, membranes were processed in stripping buffer (62.5 mM Tris-HCI and 100 mM β-mercaptoethanol/2% SDS, pH 6.7) at 50° C. before being re-probed.
To quantify expression levels or kinase activity, the optical density of each band was determined by densitometry and analyzed by QuickOne (Bio-Rad Laboratories). Each value was normalized to β-actin from the same blot. To report the changes due to OGF treatment, we calculated the fold increase by dividing the normalized value from the OGF treated samples by the normalized value of control samples at each time point; thus, increases due to OGF have values greater than one, and decreases due to OGF have values less than one. For all Western blot analyses, 3 or more independent experiments were performed.

[3] = system: Cdk4 kinase activity; assay: Immunoprecipitation and Rb kinase assay (Cdk4 kinase activity) in SCC-1 cells
Description: To quantify expression levels or kinase activity, the optical density of each band was determined by densitometry and analyzed by QuickOne (Bio-Rad Laboratories). Each value was normalized to β-actin from the same blot. To report the changes due to OGF treatment, the fold increase was calculated by dividing the normalized value from the OGF treated samples by the normalized value of control samples at each time point; thus, increases due to OGF have values greater than one, and decreases due to OGF have values less than one.
Immunoprecipitation and Rb kinase assay. For immunoprecipitating protein complexes, cell extracts were prepared as follows: 2×10^6 cells per sample were rinsed in cold PBS followed by lysis in 100 μl NP40 immunoprecipitation buffer (1% NP-40, 50 mM Tris-HCI (pH7.4), 150 mM NaCl, 1 mM EDTA, 10 mM NaF, 2 μg/ml antipain, 1 mM sodium orthovanidate, 2 μg/ml aprotinin, 2 μg/ml leupeptin, 1 μg/ml pepstatin A, 1 μM okadaic acid, 1 mM PMSF, 1 mM dithiothreitol (DTT). For each immunoprecipitation reaction mixture, a total of 500 μg of protein extract was used. The lysates were then subjected to immunoprecipitation using 10 μl polyclonal antibody against Cdk4 prebound with agarose conjugate (sc-601 AC, Santa Cruz) for 60 min at 4° C. Then immunoprecipitates were mixed with kinase buffer (25 mM HEPES, pH7.4, 10 mM MgCl2), 5 μCi γ^32P-ATP, and Rb(769-921) (sc-4112, Santa Cruz) as the substrate for Cdk4. After incubation for 30 min at 30° C., with occasional mixing, the reaction was stopped by the addition of 2× sample loading buffer (0.5 M Tris-HCl, pH 6.8, 4.4% (w/v) SDS, 20% (v/v) glycerol, 2% (v/v) 2-mercaptoethanol, and bromophenol blue in distilled/deionized water). Proteins in the reaction mixture were separated by a 10% SDS-PAGE gel. The Cdk4 kinase activity pattern was visualized by autoradiography of phosphorylated Rb.

[4] = system: p16/Cdk4 complex; assay: Cdk4 immunoprecipitation, p16/Cdk4 and cyclin D1/Cdk4 complexes in SCC-1 cells
Description: Cell extracts were subjected to immunoprecipitation using antibodies against Cdk4 and protein A beads (Santa Cruz). Immunoprecipitates were separated on a 15% SDS-PAGE gel, and membrane blots probed with p16 antibodies (1:200), and developed using a chemiluminescence Western blotting detection system. Blots were re-probed with Cdk4 antibody (1:200). Five independent experiments were performed.

[5] = system: p21/Cdk2 complex; assay: Cdk2 immunoprecipitation, p21/Cdk2 and cyclin E/Cdk2 complexes in BxPC-3 cells
Source text: Cell extracts were subjected to immunoprecipitation using antibodies against Cdk2 and protein A beads. Immunoprecipitates were separated on a 15% SDSPAGE gel, and membrane blots probed with p21 antibodies (1:100), and developed using a chemiluminescence Western blotting detection system. Blots were reprobed with Cdk2 antibody (1:200).

## [Met^5]-enkephalin [OGF]
[1]; FIG. 4 growth curves, p<0.05
  Cell numbers vs control levels: significantly reduced
[1]; 72 h
  reduction in growth: 24%
[1]; 96 h
  reduction in growth: 40%
[2]; 15, 18, and 21 hours, 10^-6 M OGF, significant at 21 hours (p<0.01)
  level of phospho-Rb (Ser795): decreased
[2]; OGF treatment, Western blot
  phospho-Rb (pSer807/811) levels: did not alter
[2]; after 21 hours of OGF treatment
  Expression of total Rb protein: not decreased
[3]; OGF for 3, 6, 9, or 12 h (FIG. 1)
  Cdk4 kinase activity vs control cells at each respective time: differed significantly
[3]; OGF for 6, 9, and 12 h
  Cdk4 kinase activity relative to controls: marked decrease
[3]; OGF for 3 h
  Cdk4 kinase activity relative to controls: transient increase
[4]; 3, 6, 9, and 12 h, significant (p<0.05) at 9 and 12 h
  level of the p16/Cdk4 complex: elevated at all time points; also recorded: increased at all time points
[4]; after treatment with OGF
  level of the cyclin D1/Cdk4 complex: no change
[5]; 3, 6, 9, 12, 15, 18, and 21 hours, significant (p<0.05) at 15 hours
  levels of the p21/Cdk2 complex: elevated at all time points; also recorded: increase at 9, 12, 15, 18, and 21 hours
[5]; after treatment with OGF
  level of the cyclin E/Cdk2 complex: no change
